Our source for the IC50 values is patent US20260022118A1, “HETEROCYCLIC COMPOUNDS AS NRAS INHIBITORS” (Board of Regents, The University of Texas System, priority 2023, published 2026).

Molecules are shown by their SMILES.

In this assay the test system is THP-1 cells expressing G12D (NRAS G12D). As to the kind of experiment: Inhibition of NRAS G12D-mediated phosphorylation of ERK (AlphaLISA p-ERK1/2) in THP-1 cells. It counts as cell-based. The following applies: Homo sapiens, THP-1, 2 h, 2 hours incubation, HBSS with 0% or 10% FBS, p-ERK1/2 (Thr202/Tyr204) AlphaLISA, read-out: pERK THP-1 IC50. The protocol: Inhibition of NRAS G12D-Mediated Phosphorylation of ERK by Exemplary Compounds of Formulas I, II, and III.
This Example illustrates that exemplary compounds and salts thereof described herein inhibit the phosphorylation of ERK downstream of NRAS G12D.
THP-1 cells (ATCC TIB-202) expressing G12D were maintained in RPMI-1640 medium supplemented with 10% fetal bovine serum (FBS), 0.05 mM 2-mercaptoethanol, and penicillin/streptomycin. Cells (20,000/well) were seeded onto a 384 well plate in 20 μL of HBSS supplemented with 0% or 10% FBS. Cells were incubated in the absence or presence of various concentrations of test compound (final 1% DMSO) for 2 hours. p-ERK expression was assessed using the AlphaLISA SureFire Ultra p-ERK1/2 (Thr202/Tyr204) (PerkinElmer®, ALSU-PERK-A10K) following manufacturer recommendation. Plates were read on a PerkinElmer® Envision Multimode plate reader. Dose-response curves were analyzed using IC50 regression curve fitting (GeneData Screener). Curves were plotted as a percent control and normalized by high controls without inhibitor (100%), and low controls (0%) containing 1 μM of trametinib, a potent MEK inhibitor.
A word on the IC50: it is the point on the concentration scale where inhibition reaches its midpoint. For `C#Cc1c(F)ccc2cc(O)cc(-c3nc(Cc4ccccc4)c4c([C@H]5[C@@H]6CNC[C@@H]65)nn(C5CC5)c4c3F)c12` [Example 52, 4-[3-(3-azabicyclo[3.1.0]hexan-6-yl)-4-benzyl-1-cyclopropyl-7-fluoro-pyrazolo[4,3-c]pyridin-6-yl]-5-ethynyl-6-fluoro-naphthalen-2-ol], the IC50 was 3890 nM.

Regarding `C#Cc1c(F)ccc2cc(O)cc(-c3nc(C(=C)C)c4c([C@H]5[C@@H]6CNC[C@@H]65)nn(C5CC5)c4c3F)c12` [Example 53, 4-(3-((1R,5S,6r)-3-azabicyclo[3.1.0]hexan-6-yl)-1-cyclopropyl-7-fluoro-4-(prop-1-en-2-yl)-1H-pyrazolo[4,3-c]pyridin-6-yl)-5-ethynyl-6-fluoronaphthalen-2-ol], the IC50 is 5.81 nM.

Take `C#Cc1c(F)ccc2cc(O)cc(-c3nc(C4CCC4)c4c([C@H]5[C@@H]6CNC[C@@H]65)nn(C5CC5)c4c3F)c12` [Example 54, 4-[3-(3-azabicyclo[3.1.0]hexan-6-yl)-4-cyclobutyl-1-cyclopropyl-7-fluoro-pyrazolo[4,3-c]pyridin-6-yl]-5-ethynyl-6-fluoro-naphthalen-2-ol]: the IC50 was 16.4 nM.

As for `C#Cc1c(F)ccc2cc(O)cc(-c3nc(C(F)(F)F)c4c([C@H]5[C@@H]6CNC[C@@H]65)nn(C5CC5)c4c3F)c12` [Example 55, 4-[3-(3-azabicyclo[3.1.0]hexan-6-yl)-1-cyclopropyl-7-fluoro-4-(trifluoromethyl)pyrazolo[4,3-c]pyridin-6-yl]-5-ethynyl-6-fluoro-naphthalen-2-ol], the half-maximal inhibitory concentration (IC50) stood at 499 nM.

With `C#Cc1c(F)ccc2cc(O)cc(-c3nc(C(C)(C)O)c4c([C@H]5[C@@H]6CNC[C@@H]65)nn(C5CC5)c4c3F)c12` [Example 56, 4-[3-(3-azabicyclo[3.1.0]hexan-6-yl)-1-cyclopropyl-7-fluoro-4-(1-hydroxy-1-methyl-ethyl)pyrazolo[4,3-c]pyridin-6-yl]-5-ethynyl-6-fluoro-naphthalen-2-ol], the IC50 worked out at 152 nM.

Regarding `C#Cc1c(F)ccc2cc(O)cc(-c3nc(OC4COC4)c4c([C@H]5[C@@H]6CNC[C@@H]65)nn(C5CC5)c4c3F)c12` [Example 71, 4-(3-((1R,5S,6r)-3-azabicyclo[3.1.0]hexan-6-yl)-1-cyclopropyl-7-fluoro-4-(oxetan-3-yloxy)-1H-pyrazolo[4,3-c]pyridin-6-yl)-5-ethynyl-6-fluoronaphthalen-2-ol], the IC50 is more than 10000 nM.

With `C#Cc1c(F)ccc2cc(O)cc(-c3nc(N(C)C)c4c([C@H]5[C@@H]6CNC[C@@H]65)nn(C5CC5)c4c3F)c12` [Example 78, 4-(3-((1R,5S,6r)-3-azabicyclo[3.1.0]hexan-6-yl)-1-cyclopropyl-4-(dimethylamino)-7-fluoro-1H-pyrazolo[4,3-c]pyridin-6-yl)-5-ethynyl-6-fluoronaphthalen-2-ol], the IC50 amounted to 89.2 nM.

Take `C#Cc1c(F)ccc2cc(O)cc(-c3nc(N4CCC4)c4c([C@H]5[C@@H]6CNC[C@@H]65)nn(C5CC5)c4c3F)c12` [Example 79, 4-(4-(azetidin-1-yl)-3-((1R,5S,6r)-3-azabicyclo[3.1.0]hexan-6-yl)-1-cyclopropyl-7-fluoro-1H-pyrazolo[4,3-c]pyridin-6-yl)-5-ethynyl-6-fluoronaphthalen-2-ol]: the IC50 was found to be 603 nM.

As for `C#Cc1c(F)ccc2cc(O)cc(-c3nc(N(CC)CC)c4c([C@H]5[C@@H]6CNC[C@@H]65)nn(C5CC5)c4c3F)c12` [Example 80, 4-(3-((1R,5S,6r)-3-azabicyclo[3.1.0]hexan-6-yl)-1-cyclopropyl-4-(diethylamino)-7-fluoro-1H-pyrazolo[4,3-c]pyridin-6-yl)-5-ethynyl-6-fluoronaphthalen-2-ol], the IC50 is 126 nM.

For the compound `C#Cc1c(F)ccc2cc(O)cc(-c3nc(N(C)CC)c4c([C@H]5[C@@H]6CNC[C@@H]65)nn(C5CC5)c4c3F)c12` [Example 81, 4-(3-((1R,5S,6r)-3-azabicyclo[3.1.0]hexan-6-yl)-1-cyclopropyl-4-(ethyl(methyl)amino)-7-fluoro-1H-pyrazolo[4,3-c]pyridin-6-yl)-5-ethynyl-6-fluoronaphthalen-2-ol], the IC50 stood at 74.6 nM.

Turning to `C#Cc1c(F)ccc2cc(O)cc(-c3nc(C(C)=O)c4c([C@H]5[C@@H]6CNC[C@@H]65)nn(C5CC5)c4c3F)c12` [Example 84, 1-(3-((1R,5S,6r)-3-azabicyclo[3.1.0]hexan-6-yl)-1-cyclopropyl-6-(8-ethynyl-7-fluoro-3-hydroxynaphthalen-1-yl)-7-fluoro-1H-pyrazolo[4,3-c]pyridin-4-yl)ethan-1-one], the IC50 was 458 nM.

Regarding `C#Cc1c(F)ccc2cc(O)cc(-c3nc(C(C)O)c4c([C@H]5[C@@H]6CNC[C@@H]65)nn(C5CC5)c4c3F)c12` (stereo partly drawn) [Example 87, 4-(3-((1R,5S,6r)-3-azabicyclo[3.1.0]hexan-6-yl)-1-cyclopropyl-7-fluoro-4-(1-hydroxyethyl)-1H-pyrazolo[4,3-c]pyridin-6-yl)-5-ethynyl-6-fluoronaphthalen-2-ol], the IC50 amounted to 112 nM.

Turning to `C#Cc1c(F)ccc2cc(O)cc(-c3nc(C(=C)C)c4c(N5C[C@@H]6CC[C@H]5CN6)nn(C5CC5)c4c3F)c12` [Example 89, 4-(3-((1S,4S)-2,5-diazabicyclo[2.2.2]octan-2-yl)-1-cyclopropyl-7-fluoro-4-(prop-1-en-2-yl)-1H-pyrazolo[4,3-c]pyridin-6-yl)-5-ethynyl-6-fluoronaphthalen-2-ol], the IC50 came out at 3730 nM.

Turning to `C#Cc1c(F)ccc2cc(O)cc(-c3ncc4c(NCCN)nn(C)c4c3F)c12` [Example 93, 4-(3-((2-aminoethyl)amino)-7-fluoro-1-methyl-1H-pyrazolo[4,3-c]pyridin-6-yl)-5-ethynyl-6-fluoronaphthalen-2-ol], the IC50 worked out at 9260 nM.

In the case of `C#Cc1c(F)ccc2cc(O)cc(-c3ncc4c(C5[C@H]6CNC[C@@H]56)nn5c4c3OCC5)c12` (stereo partly drawn) [Example 94, 4-[3-[(1S,5R)-3-azabicyclo[3.1.0]hexan-6-yl]-9-oxa-1,2,6-triazatricyclo[6.3.1.04,12]dodeca-2,4,6,8(12)-tetraen-7-yl]-5-ethynyl-6-fluoro-naphthalen-2-ol], the IC50 is more than 10000 nM.

Regarding `C#Cc1c(F)ccc2cc(O)cc(-c3nc4c5c(nn(C)c5c3F)N3C[C@H]5CC[C@H](N5)[C@H]3CO4)c12` [Example 95, 5-ethynyl-6-fluoro-4-[(4R,7S,8S)-14-fluoro-16-methyl-10-oxa-2,12,16,17,19-pentazapentacyclo[9.6.1.14,7.02,8.015,18]nonadeca-1(17),11(18),12,14-tetraen-13-yl]naphthalen-2-ol], the IC50 is more than 10000 nM.

For the compound `C#Cc1c(F)ccc2cc(O)cc(-c3ncc4c(C5[C@H]6CNC[C@@H]56)nc(C)n4c3F)c12` (some centres unmarked) [Example 98, 4-[1-(3-azabicyclo[3.1.0]hexan-6-yl)-5-fluoro-3-methyl-imidazo[1,5-a]pyrazin-6-yl]-5-ethynyl-6-fluoro-naphthalen-2-ol], the IC50 stood at 9270 nM.

For `C#Cc1c(F)ccc2cc(O)cc(-c3ncc4c([C@H]5[C@@H]6CNC(COC)[C@@H]65)nn(C5CC5)c4c3F)c12` (stereo partly drawn) [Example 99, 4-(1-cyclopropyl-7-fluoro-3-((1S,5R,6S)-2-(methoxymethyl)-3-azabicyclo[3.1.0]hexan-6-yl)-1H-pyrazolo[4,3-c]pyridin-6-yl)-5-ethynyl-6-fluoronaphthalen-2-ol], the IC50 was more than 10000 nM.

Turning to `C#Cc1c(F)ccc2cc(O)cc(-c3ncc4c(N5C[C@@H]6CC[C@H]5CN6)nn(C5CC5)c4n3)c12` [Example 101, 4-(3-((1S,4S)-2,5-diazabicyclo[2.2.2]octan-2-yl)-1-cyclopropyl-1H-pyrazolo[3,4-d]pyrimidin-6-yl)-5-ethynyl-6-fluoronaphthalen-2-ol], the IC50 is more than 10000 nM.

Consider `C#Cc1c(F)ccc2cc(O)cc(-c3ncc4c(N5C[C@@H]6CC[C@H]5CN6)c(C)n(C)c4c3F)c12` [Example 107, 4-(3-((1S,4S)-2,5-diazabicyclo[2.2.2]octan-2-yl)-7-fluoro-1,2-dimethyl-1H-pyrrolo[3,2-c]pyridin-6-yl)-5-ethynyl-6-fluoronaphthalen-2-ol], for which the IC50 was more than 10000 nM.
